Data as given in patent US8461122B2, “Derivatives of morphine-6-glucuronide, preparation method thereof and use of same in therapeutics” (Sanofi, priority 2008, dated 2013).
Read-outs that look alike come from different tables or passages of the source.

Test system: male Swiss mice
Conditions: tail-flick; for ED50 60 min. post-administration: Table 2 (sc); for Duration of action / % MPE max: subcutaneous
Protocol: Tests consisting in measuring the in vivo activity of the compounds of the invention on a nociceptive reflex response were performed. In this approach, the latency of the animal's nociceptive reflex response is measured as a pain indicator.
The analgesic activity was determined by means of the “tail-flick” test in male Swiss mice (Iffa Credo). This test is based on the spontaneous nociceptive reflex of removal of the animal's tail caused by a painful heat stimulus (infrared source). The “tail-flick” test (D'Amour-Smith test, 1941, Pharmacol. Exp. Ther.; 72: 74-79) consists, after administering a product, in placing a mouse's tail at the focal point of the infrared source so as to produce a nociceptive heat stimulus (surface temperature of about 55-60° C.). The mouse's reaction time (RT) (latency between the moment when the light beam is switched on and the moment when the mouse removes its tail) was measured in duplicate at different times ranging from 20 minutes to 120 minutes after administration of the product. The heat intensity is regulated such that this removal reflex is between 0.5 and 3.5 seconds in the control animals, and arbitrarily represents the criterion for minimum analgesia (0%). Two reaction time measurements were taken before administration of the product for each mouse, to establish a baseline measurement time. A maximum time of 8 seconds was chosen as the maximum reaction time so as not to induce tissue damage by burning the animals, and arbitrarily represents the criterion for maximum analgesia (100%). The reaction time is increased by the analgesics relative to a control animal not receiving any treatment. The products were administered subcutaneously and orally at doses of between 1.25 and 30 mg/kg (expressed as salt).
The percentage of analgesic activity (% MPE) is determined by the following formula: % MPE=(RTpost-administration−RTpre-administration)*100/(RTmax−RTpre-administration)

[1] = dose 1.25 mg/kg (expressed as salt)
[2] = dose 10 mg/kg (expressed as salt)

| Compound | ED50 60 min. post-administration [mg/kg] | Duration of action (dose 1.25 mg/kg) | % MPE max [1] | Duration of action (dose 10 mg/kg) | % MPE max [2] | ED50 at 60 minutes (oral, 60 minutes) | percentage of maximum analgesic activity (% MPE max index) (oral, dose 10 mg/kg) [%] | Duration of action (dose 5 mg/kg) | % MPE max (dose 5 mg/kg (expressed as salt)) |
| --- | --- | --- | --- | --- | --- | --- | --- | --- | --- |
| CN1CC[C@]23c4c5ccc(O)c4O[C@H]2[C@@H](O[C@@H]2O[C@H](c4nn[nH]n4)[C@@H](O)[C@H](O)[C@H]2O)C=C[C@H]3[C@H]1C5.O=C(O)C(F)(F)F [Compound 2, Morphin-6-yl 5-C-(tetrazol-5-yl)-β-d-xylopyranoside trifluoroacetate] | <1.25 | >120 (1.25) minutes | 100 (1.25) % | – | – | – | – | – | – |
| Cc1nnc(C2O[C@H](O[C@H]3C=C[C@H]4[C@H]5Cc6ccc(O)c7c6[C@@]4(CCN5C)[C@H]3O7)[C@H](O)[C@@H](O)[C@@H]2O)o1.O=C(O)C(F)(F)F (stereo partly drawn) [Compound 4, Morphin-6-yl 5-C-(2-methyl-1,3,4-oxadiazol-5-yl)-α-D-xylopyranoside trifluoroacetate] | 8 | – | – | 90 (10) minutes | 65 (10) % | – | – | – | – |
| Cc1nnc(C2O[C@@H](O[C@H]3C=C[C@H]4[C@H]5Cc6ccc(O)c7c6[C@@]4(CCN5C)[C@H]3O7)[C@H](O)[C@@H](O)[C@@H]2O)o1.O=C(O)C(F)(F)F (stereo partly drawn) [Compound 5, Morphin-6-yl 5-C-(2-methyl-1,3,4-oxadiazol-5-yl)-β-D-xylopyranoside trifluoroacetate] | <1.25 | >120 (1.25) minutes | 100 (1.25) % | – | – | less than 2.5 mg/kg | 78 | – | – |
| Morphin-6-yl 5-C-(2-methyl-1,3,4-oxadiazol-5-yl)-α/β-D-xylopyranoside trifluoroacetate [Compound 3] | 3.2 | – | – | – | – | – | – | >120 (5) minutes | 100 (5) % |
| Morphin-6-yl 5-C-(tetrazol-5-yl)-αβ-D-xylopyranoside trifluoroacetate [Compound 1] | 10 | – | – | >120 (10) minutes | 50 (10) % | – | – | – | – |
